# Source: patent publication US20240358705A1, “COMPOSITIONS AND METHODS FOR TREATMENT OF CANCER” (Board of Supervisors of Louisiana State University and …, priority 2021, published 2024)
# “Also recorded” adds a separate entry of the source. {AltR1} = IDT Alt-R proprietary 5' end modification; {AltR2} = IDT Alt-R proprietary 3' end modification
# Tests used:
# [1] = model of diet-induced obesity; cited from earlier work
# [2] = cited from earlier work
# [3] = phase II study; cited from earlier work
# [4] = test system: macrophages, fibroblasts, myofibroblasts, and epithelial cells; settings: cited from earlier work
# CD8 OT-I T cells = assay: In vivo vaccination antigen titration; parameters: species or system mouse; OT-I proliferation response, lymph node: dose or concentration left out as unconfirmed
# Method: C57BL/6N mice were first administered 200 μg cyclophosphamide dissolved in PBS by intraperitoneal injection to induce minor lymphodepletion. 48 hours after lymphodepletion, mice were intravenously adoptively transferred 2×10^6 CFSE labeled CD8 OT-I T cells. Five hours later, mice were vaccinated by 100 μl subcutaneous injection with reducing doses of […] (SEQ ID NO: 1) (Bachem #4033142.0001) in incomplete Freund's adjuvant (IFA) (Thermo #77145). Study ended 96 hours post-vaccination and lymph node tissue was isolated for analysis. Single-cell suspensions of lymph node were stained following the immune profiling by flow cytometry method. Vaccine effectiveness was determined by the percent proliferation of adoptively transferred cells. The sub-optimal vaccine dose was then selected as the amount of antigen that elicited a 50% response.
# [5] = test system: human polymorphonuclear leukocytes and macrophages; settings: cited from earlier work
# pmel-I CD8 T cells = assay: Cytotoxicity of CRISPR-Cas9 GPR84 knockout pmel-I CD8 T cells; assay type: cell-based, mouse
# Method: CRISPR-Cas9 GPR84 pmel-I T cells were prepared following the CRISPR-Cas9 method. Non-target EL4 cells (CFSE low—0.1 μM) and target EL4gp100 cells (CFSE high—[…]) were prepared. EL4gp100 CFSE high cells were prepared by pulsing EL4 with […] gp100 (Anaspec #AS62589) and incubating for 30 minutes at 37° C., 5% C02. Cells were subsequently washed, pelleted, resuspended at 1×10^6 cells/ml, and mixed at 1:1 ratio. 1×10^5 of the mixed cells were plated into a 96-well round-bottom plate. In technical duplicate or triplicate GPR84 knockout or no target control CD8 […] T cells were added to wells to create an effector to target ratio of 0.5:1, 0.25:1, and 0.12:1 and incubated for 24 hours at 37° C., 5% C02. Cells were then harvested, stained with anti-CD8 to remove the T cell population and the percent specific lysis was captured by flow cytometry.
# Isolated pmel-I splenocytes were plated at a density of 2.5×10^6 in 1 ml of cRPMI-1640 containing 300 ng/ml anti-mouse CD3 (Biolegend #100340, clone 145-2C11), 500 IU/ml IL-2, 5 ng/ml IL-7 (PreproTech #217-17), and 100 ng/ml IL-15 (PreproTech #210-15) into a 24-well plate. Cells were incubated at 37° C., 5% CO2 for 48 hours. Cells were then pelleted and suspended to a concentration of 4×10^5 cells/ml in fresh cRPMI-1640 with 500 IU/ml IL-2 and cultured for an additional 24 hours at 37° C., 5% CO2. Before electroporation, T media was prepared consisting of modified cRPMI-1640 (20% FBS, 500 IU/ml IL-2, and no antibiotics). 615 μl of fresh T media was pipetted into 24-well plates. Preparation of CRISPR-Cas9 complexes and electroporation of primary T cells were conducted following the Alt-R CRISPR-Cas9 system using the Neon Transfection System instructions provided by Integrated DNA Technologies (IDT Coralville, IO). The program used for electroporation consisted of 1600V, 10 ms, and three pulses. […] Cells were counted 48 hours after electroporation and cRPMI-1640 supplemented with 500 IU/ml IL-2 was added to adjust the cell density to 4×10^5 cells/ml. […]
compound,measurement,setting,value
CCCCCc1cc(CCCCC)cc(CC(=O)O)c1 [PBI-4547],metabolic dysregulation (hyperglycemia and hypertriglyceridemia),[1],improved metabolic dysregulation
CCCCCc1cccc(CC(=O)O)c1 [PBI-4050],forced vital capacity,[2]; combination therapy with pirfenidone,worsened forced vital capacity
same,inflammatory and fibrotic biomarkers,[2]; patients treated with PBI-4050,"significant increase in IL-9, IL-7, MIP-Ibeta; also recorded: increase in IL-9, IL-7, MIP-1beta"
same,tolerability,"[2]; single agent and in combination with nintedanib or pirfenidone, phase II",well tolerated
same,ability to increase forced vital capacity,[2]; single agent and in combination with nintedanib,unsuccessful
same,HbA1c,[3],can reduce HbAlc
same,fibrotic capacity of cells,[4],reduced fibrotic capacity
same,glycemic control,[4],improved glycemic control
SIINFEKL,"OT-I proliferation response, predicted","CD8 OT-I T cells; 0.07 g SIINFEKL, selected sub-optimal vaccine dose",50%
same,"OT-I proliferation, lymph node","CD8 OT-I T cells; first five concentrations of SIINFEKL in IFA, 96 hours",~100%
same,"OT-I proliferation response, lymph node",CD8 OT-I T cells; in IFA,below 50%
CCCCCCCCNc1cc(=O)[nH]c(=O)[nH]1 [6-OAU],chemotaxis,[5],increase chemotaxis
"crGPR84: CRISPR-Cas9 guide RNA (SEQ ID NO: 2) used to knock out GPR84 in pmel-I CD8 T cells (guide CUCGAGCACUGGACCAAUACGUUUUAGAGCUAUGCU; RNA, 5' {AltR1}, 3' {AltR2}, backbone not given here)",specific lysis of gp100 pulsed EL4 target cells,"pmel-I CD8 T cells; 0.12:1 effector to target ratio, crNTC 38.6%",52.3%
same,specific lysis of gp100 pulsed EL4 target cells,"pmel-I CD8 T cells; 0.25:1 effector to target ratio, no target control 55.9%",72.5%
same,cytotoxicity vs no target control,pmel-I CD8 T cells; 0.5:1 effector to target ratio,did not find a significant difference
